Experimental findings from patent US20230390319A1, “INTERFERON GENE STIMULATOR COMPOSITION COMPRISING INDOLIZINE DERIVATIVE AS ACTIVE INGREDIENT” (AJOU UNIVERSITY INDUSTRY-ACADEMIC COOPERATION FOUNDATION, priority 2020, published 2023) are described below.

Each structure is given as a SMILES string. Entries after “also recorded” stand apart in the source; their conditions may differ.

In series [1] the test system is THP-1 cells. The series is described as follows: Cell viability assay (CellTiter Clo) in THP-1 cells. It is filed as cell-based, Human. The gist of the method: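 Wild-type or STING-knockout human monocytic THP-1 cells co-treated with compound plus cGAMP (1 μg/ml). Viability measured with CellTiter-Glo reagent on a plate reader and normalized to DMSO control.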
In series [2] the test system is IRF3, STAT1. The series is described as follows: Western blot analysis of TBK, IRF3 and STAT1 activity. The series is classed as cell-based. As to conditions: induced by cGAMP, FIG. 5. The procedure:
Cells were cultured and lysed in RIPA buffer containing a protease and phosphatase inhibitor cocktail (Thermo Fisher Scientific) and benzonase nuclease (Sigma). After centrifugation, the supernatant was collected, and the amount of protein was measured using a BCA protein assay kit (Thermo Fisher Scientific). Cell lysates were analyzed by SDS-PAGE using an acrylamide gel. After SDS-PAGE, proteins were transferred to a PVDF membrane, blocked with 5% BSA, and then washed with TBST. The membrane was incubated with primary antibodies (anti-STING, anti-pSTING, anti-TBK, anti-pTBK, anti-IRF3, anti-pIRF3, anti-STAT1, anti-pSTAT1, and anti-actin) overnight at 4° C. After washing with TBST, the membrane was treated with HRP-conjugated secondary antibodies at room temperature for 1 hour. The membrane was washed with TBST and treated with ECL solution (Thermo Fisher Scientific). Chemical fluorescence images were taken with ChemiDOC (Bio-Rad).
On the technique in general: Immunoblotting shows a protein as a band on a membrane.

The test system of series [3] is 4T1 tumor cells. The series is described as follows: In vivo anticancer activity, 4T1 tumor in BALB/c mice. As to conditions: Compound 42 20 mg/kg intravenous once daily + cGAMP 2 μg intratumoral every 4 days, compared to cGAMP alone, FIG. 7. The procedure:
Eight-week-old female BALB/c mice (DBL) were used for experiments and inoculated subcutaneously with 0.5×10^6 4T1 tumor cells using PBS as the vehicle on the right flank. Following tumor implantation, mice were randomized into treatment groups, each consisting of N=4 (vehicle N=1). On day 5 after tumor cell injection, when the tumor volume reached about 100 mm^3, Compound 42 or vehicle was administrated by intravenous injection (20 mg/kg) or vehicle (5% DMSO, 5% Tween 80 in PBS). 2′3′-cGAMP (InvivoGen) was injected by intratumoral injection (2 μg in PBS). Compound 42 was injected once daily, and cGAMP was injected once every 4 days. Tumor and body weight measurements were performed using digital calipers and a weigh scale, respectively. Tumor volume was estimated using the following Equation 1:
Tumor volume=(length×width^2)/2 [Equation 1]
Mice were euthanized when the tumor volume reached about 2,000 mm^3.

On to `CC(=O)c1ccc(-c2cc(C(=O)c3ccc(C(F)(F)F)cc3)n3ccccc23)cc1` [Compound 42], for which, in series [1] (THP-1 cells, 20 μM of each compound, co-treated with cGAMP (1 μg/ml)), the Normalized cell viability stood at 1.20. Further, the cytotoxicity of co-treatment entry in series [1] (co-treatment with cGAMP) is listed as “no cytotoxicity; also recorded: did not cause toxicity”. Further, the “phosphorylation of IRF3 and STAT1” value in series [2] was “increased phosphorylation of IRF3 and phosphorylation of STAT1”. In addition, the tumor volume result in series [3] is recorded as “effectively reduced the tumor volume”.
